Results from patent US20070154580A1, “Antiviral Morinda Citrifolia L. Based Formulations and Methods of Administration” (priority 2005, published 2007).
Read-outs that look alike come from different tables or passages of the source.

Columns and labels:
[1] = target: T1, Protease, CTSG (Cathepsin G) (Homo sapiens, UniProt P08311); assay: Protease, CTSG (Cathepsin G) inhibition assay; assay type: biochemical; conditions: reference compound, concurrent run; read-out: Concurrent MIC IC50
T1 sequence (P08311 21-255): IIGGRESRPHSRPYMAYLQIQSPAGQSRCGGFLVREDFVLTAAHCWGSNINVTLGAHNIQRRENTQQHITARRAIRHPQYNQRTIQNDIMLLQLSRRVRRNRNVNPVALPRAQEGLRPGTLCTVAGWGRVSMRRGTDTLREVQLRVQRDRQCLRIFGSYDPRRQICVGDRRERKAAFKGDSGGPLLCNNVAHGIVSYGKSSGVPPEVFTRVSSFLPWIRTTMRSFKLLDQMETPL

[2] = target: T1, Protease, CTSG (Cathepsin G); conditions: reference compound, historical value; cited from earlier work

In the case of CC(C)C[C@H](NC(=O)[C@@H](NC(=O)N[C@@H](Cc1ccccc1)C(=O)O)[C@@H]1CCN=C(N)N1)C(=O)N[C@H](C=O)Cc1ccccc1 [Chumostatin], the IC50 [1] is listed as 1220 nM and the IC50 [2] is listed as 2100 nM.
